The values below come from patent US8623405B2, “Finely divided composition containing poorly water soluble substance” (Takeda Pharmaceutical Company Limited, priority 2005, dated 2014).

Holding throughout (type): physicochemical
Data set [1] can be described thus: Degree of crystallinity of composition after pulverization (powder X-ray diffraction, Vonk method). Conditions: after pulverization (freeze-dried pulverized suspension of Example 1). Here is the method:
A powder obtained by freeze-drying the pulverized suspension obtained in Example 1 was enclosed in a quartz glass capillary and measured using a powder X-ray diffraction measurement apparatus (Rigaku Corporation, ultraX TTR2-300), Cu rotating target, parallel beam method (50 kV, 300 mA), scanning angle 3-120 degrees, scan step 0.02 degree/counting time 0.6 sec. The degree of crystallinity was calculated from the obtained X-ray diffraction profile using the Vonk method.
The X-ray diffraction profiles were obtained by measurements using the above-mentioned measurement apparatuses and conditions.

The nature of data set [2]: Particle size measurement of pulverized suspensions (laser diffraction/scattering LA-920).
Data set [3] is described as follows: Degree of crystallinity of composition after pulverization (powder X-ray diffraction, Vonk method). Conditions: before pulverization.
Data set [4] in a line: Particle size measurement of pulverized suspensions (laser diffraction/scattering LA-920). Conditions: after pulverization (Example 1, ball mill with Kollidon 17PF and sodium lauryl sulfate). From the text: The dispersion medium used for the measurement is usually water, but an aqueous solution of a substance other than the poorly water soluble substance contained in the composition and the like (for some purposes, buffer solutions at various pH levels, mimicked body fluid, 0.5% methylcellulose aqueous solution and the like) can also be used.
“90% frequency particle diameter” is a particle diameter corresponding to the 90% frequency of the above-described integral distribution curve and, in the present invention, means the particle diameter of 90% frequency (90% frequency particle diameter) of the composition dispersed in a liquid, as measured using a laser diffraction/scattering particle size distribution analyzer (LA-920, Horiba Ltd.).
As a dispersion medium, purified water was used.

[5] abbreviates: after pulverization (Example 1, ball mill with Kollidon 17PF and sodium lauryl sulfate).
[6] abbreviates: before pulverization, substances used in Example 1.

In the case of `FC(F)(F)c1ccc(/C=C/c2nc(COc3ccc(CCCCn4ccnn4)cc3)co2)cc1` [compound A, 1-(4-{4-[(2-{(E)-2-[4-(trifluoromethyl)phenyl]ethenyl}-1,3-oxazol-4-yl)methoxy]phenyl}butyl)-1H-1,2,3-triazole], the degree of crystallinity in data set [1] is 61.3%; in data set [3] it was 74.7%. Moreover, the turbulent factor is on record as 1.412 in data set [1] and −0.163 in data set [3]. Further, the “particle size: D50” value in data set [2] (setting [5]) was found to be 0.42 μm; in data set [2] (setting [6]), 5.68 μm. The D90 in data set [4] amounted to 0.68 μm.
Consider `CCC1=C(C)CN(C(=O)NCCc2ccc(S(=O)(=O)NC(=O)N[C@H]3CC[C@H](C)CC3)cc2)C1=O` [glimepiride], for which the degree of crystallinity in data set [1] worked out at 68.7%; in data set [3], 73.7%. For the same molecule, the turbulent factor in data set [1] is reported as 2.249; in data set [3], 0.622. Also, the “particle size: D50” value in data set [2] (setting [5]) amounted to 0.39 μm; in data set [2] (setting [6]), 1.67 μm. Also, the D90 in data set [4] is 0.55 μm.
As for `COC1=CC(=O)C[C@@H](C)[C@]12Oc1c(Cl)c(OC)cc(OC)c1C2=O` [griseofluvin, 7-chloro-2′,4,6-trimethoxy-6′-methylspiro[benzofuran-2(3H),1′-[2]cyclohexene]-3,4′-dione], the “particle size: D50” value in data set [2] (setting [5]) was 0.35 μm; in data set [2] (setting [6]), 6.35 μm. Besides, the D90 in data set [4] is 0.50 μm.
`COc1ccc2c(c1)c(CC(=O)O)c(C)n2C(=O)c1ccc(Cl)cc1` [indomethacin]: the degree of crystallinity is listed as 89.8% in data set [1] and 99.9% in data set [3]. Moreover, the turbulent factor in data set [1] is 0.793; in data set [3], −0.001. Besides, the results for the “particle size: D50” value in data set [2] (setting [5]) and in data set [2] (setting [6]) were 0.36 μm and 9.61 μm, respectively. Also, in data set [4], the D90 amounted to 0.50 μm.
As to `CC(C(=O)O)c1cccc(C(=O)c2ccccc2)c1` (stereo not shown) [ketoprofen, Ketoprofen], the “particle size: D50” value in data set [2] (setting [5]) was found to be 0.50 μm. For the same molecule, the D90 in data set [4] came to 0.77 μm.
As to `COc1cc(NS(=O)(=O)c2ccc(N)cc2)nc(OC)n1` [sulfadimethoxine], in data set [2] (setting [5]), the “particle size: D50” value is 0.44 μm. The molecule also returned a D90 in data set [4] of 0.65 μm.
